In PubChem BioAssay AID1996:
Converted amounts (≈) assume the structure as drawn.

Details: buffer; pH 7.4; 200.0 µM

| Structure (SMILES) | solubility kinetic [µg/mL] |
| --- | --- |
| O=C1NC(c2cccc(Cl)c2)Oc2ccccc21 (stereo unspecified) | 1.2 (≈ 4.62 µM) |
| CN(C)C(=O)CN1C(=O)c2cccc3cccc1c23 | 33.1 (≈ 130 µM) |
| Cc1ccc(C)c(OCCC(=O)OCC(=O)NC(=O)NC2CCCCC2)c1 | 3.9 (≈ 10.4 µM) |
| Nc1ccc(-c2nc3cc([N+](=O)[O-])ccc3o2)cc1 | 1.1 (≈ 4.31 µM) |
| Cc1ccc2[nH]c(C(=O)N3CCN(C=O)CC3)cc2c1 | > 40.7 |
| COc1ccc(C2c3c(noc3C)CC(C)(O)C2C(C)=O)cc1 (stereo unspecified) | > 47.3 |
| O=C(O)c1cn2c3c(ccc(Cl)c3c1=O)OCC2 | > 39.8 |
| CC(NC(=O)c1cc(F)c(F)cc1Cl)c1ccncc1 (stereo unspecified) | > 44.5 |
| Cc1cnc(=O)[nH]c1SCc1ccccc1F | > 37.5 |
| CSc1cccc(NC(=S)N2CCC(N(C)C3CCCC3)CC2)c1 | > 54.5 |
| Cn1cc(S(=O)(=O)Oc2ccccc2)c(=O)n(C)c1=O | 39.5 (≈ 133 µM) |
| O=C(O)C(=O)O.O=[N+]([O-])c1ccccc1CNCCc1c[nH]c2ccccc12 | 41.8 |
| CCn1c(=O)c2ccccc2n(Cc2cccc([N+](=O)[O-])c2)c1=O | 0.9 (≈ 2.77 µM) |
| O=C(CSCc1cccc(F)c1)NCc1ccccc1 | 35.2 (≈ 122 µM) |
| COc1ccccc1CNC(=O)Cc1ccccc1 | 24.7 (≈ 96.7 µM) |
| CC(C)CC(=O)c1c[nH]c(C(=O)NCc2ccc(F)cc2)c1 | 0.7 (≈ 2.32 µM) |
| COC(=O)c1c(-c2ccccc2)noc1C | 18.1 (≈ 83.3 µM) |
| Cc1noc(C)c1NC(=O)N1CCN(Cc2ccccc2)CC1 | > 47.2 |
| COC(=O)C1CCN(C(=O)/C(C)=C\c2ccccc2)CC1 | 41 (≈ 143 µM) |
| Cc1ccc(C(=O)NCCc2nnc(SCC(=O)Nc3cccc(C(=O)O)c3)n2C)cc1 | > 68 |
| O=C(NCCc1cnc[nH]1)c1cccs1 | > 33.2 |
| CN1C(=O)c2ccc(NC(=O)CSc3ccccc3)cc2C1=O | 6.3 (≈ 19.3 µM) |
| NS(=O)(=O)c1ccc(CCNC(=O)c2cnccn2)cc1 | > 46 |
| CC(=O)c1cccc(NC(=O)C2CC(=O)N(C3CCCC3)C2)c1 (stereo unspecified) | > 47.2 |
| O=C(c1cc(-c2ccc(Cl)cc2Cl)on1)N1CCCCCC1 | 4.1 (≈ 12.1 µM) |

| Structure (SMILES) | solubility kinetic [µg/mL] |
| --- | --- |
| CC(=O)c1c(O)c2ccccc2n(C)c1=O | 27.3 (≈ 126 µM) |
| Cc1ccc2oc(=O)c(/C=C(\O)c3ccco3)nc2c1 | 31.7 (≈ 118 µM) |
| CN(C)CCCN1C(=O)c2cc3ccccc3cc2C1=O | 27.8 (≈ 98.5 µM) |
| CCOc1ccccc1C(=O)NCC(=O)N(C)Cc1cccnc1 | 44.8 (≈ 137 µM) |
| Cc1nn(C)cc1C(=O)Nc1ccc2c(c1)OCCO2 | > 41 |
| COc1ccc(CCN=Cc2ccccc2O)cc1OC | > 42.8 |
| CCC(NC(=S)NC1CCCCC1)c1ccc(C)cc1 (stereo unspecified) | 5.3 (≈ 18.2 µM) |
| O=S(=O)(NCC1CC1)c1ccc(F)c(Cl)c1 | > 39.6 |
| COc1ccc(NCCC(O)c2ccc(Cl)cc2)cc1 (stereo unspecified) | 40.5 (≈ 139 µM) |
| CSc1sc(C(=O)NCC2CC2)c(-c2cccs2)c1C#N | 8.6 (≈ 25.7 µM) |
| CCOc1ccc2nc(NC(=O)C3(C)CC3(Br)Br)sc2c1 (stereo unspecified) | 8.4 (≈ 19.3 µM) |
| O=C(CC(=O)Nc1ccccc1F)Nc1ccccc1F | > 43.5 |
| O=C(O)C1CCc2sc3[nH]c(=S)n(-c4ccccc4)c(=O)c3c21 (stereo unspecified) | > 51.7 |
| Cc1cccc(C(=O)NCC(=O)OCc2nc(N)nc(Nc3ccccc3C)n2)c1 | 53.8 (≈ 132 µM) |
| Cc1ccccc1NCc1ccc([N+](=O)[O-])s1 | 13.7 (≈ 55.2 µM) |
| O=c1c(Cc2c(F)cccc2Cl)c(O)ccn1C1CC1 | > 44.1 |
| S=C(Nc1cccnc1)N1CCc2ccccc21 | > 38.3 |
| Clc1ccc2c(NCc3cccs3)ncnc2c1 | 4.5 (≈ 16.3 µM) |
| COCc1cc(C)[nH]c(=O)c1C(=O)NC12CC3CC(CC(C3)C1)C2 | 9.6 (≈ 29.1 µM) |
| COc1ccc(CCNC(=O)c2cnc(Cl)c(Cl)c2)cc1 | 2.4 (≈ 7.38 µM) |
| CCOc1ccc(N(CC(=O)Nc2cccc(C)c2)S(C)(=O)=O)cc1 | 35.6 (≈ 98.2 µM) |
| O=C(NCc1ccccn1)Nc1cccc(Cl)c1Cl | > 44.4 |
| O=C(O)C1CCN(S(=O)(=O)c2cccs2)CC1 | > 41.3 |
| CCC(=O)c1ccc(OCCn2cnc3ccccc32)cc1.Cl | 43.7 |
| COc1ccc(OC(C)C(=O)N(C)Cc2nc(-c3ccccc3)no2)cc1 (stereo unspecified) | 41 (≈ 112 µM) |

| Structure (SMILES) | solubility kinetic [µg/mL] |
| --- | --- |
| COc1ccc(CCNCCN2CCOCC2)cc1.Cl | 24.9 |
| Cc1ccc2[nH]c3c(c2c1)CCCC3NCCO.Cl (stereo unspecified) | > 42.1 |
| Cc1c([N+](=O)[O-])cc(C(=O)Nc2ccc3ncccc3c2)cc1[N+](=O)[O-] | 0.5 (≈ 1.42 µM) |
| Cc1cc[n+](C(C)C(=O)c2ccc(Cl)cc2)cc1.[Br-] (stereo unspecified) | > 51.1 |
| O=C(NCCCN1CCOCC1)c1ccc(Cl)c([N+](=O)[O-])c1 | 45.2 (≈ 138 µM) |
| O=C1CCCC2=C1C(c1ccc(O)c(O)c1)Nc1ccc3ccccc3c12 (stereo unspecified) | 47.3 (≈ 132 µM) |
| Fc1cccc(C2CCCCN2Cc2nc(C3CC3)no2)c1 (stereo unspecified) | 17.1 (≈ 56.7 µM) |
| COC(=O)c1ccccc1NC(=O)c1cc[n+]([O-])cc1 | 36.2 (≈ 133 µM) |
| CC(C)C(NC(=O)c1ccc(Cl)cc1Cl)C(=O)N1CCC1 (stereo unspecified) | > 49.4 |
| CCN(C(=O)COc1ccc2ccc(=O)oc2c1)C1CCCCC1 | > 49.4 |
| Cc1nc(Cl)c(Cl)n1CCOc1ccccc1 | > 40.7 |
| N#Cc1ccc(OCC(O)CS(=O)(=O)c2ccc(F)cc2)cc1 (stereo unspecified) | > 50.3 |
| COc1cc2ccccc2cc1C(=O)Nc1ccncc1 | 38.6 (≈ 139 µM) |
| N#C/C(=C\c1ccccc1Br)C(=O)NC1CC1 | > 43.7 |
| Cc1ccc(NC(=O)Nc2ccno2)cc1 | > 32.6 |
| Cc1cc(C)cc(C(=O)OCC(=O)Nc2ncccn2)c1 | 37.4 (≈ 131 µM) |
| Cc1ccc(F)cc1NC(=O)N1CCN(C2c3ccccc3-c3ccccc32)CC1 | 4.9 (≈ 12.2 µM) |
| S=C(c1c[nH]c2ccccc12)N1CCCC1 | > 34.5 |
| COc1ccc(-n2c(=S)[nH]c3ncccc3c2=O)cc1 | 1.5 (≈ 5.26 µM) |
| COc1ccc2cc(C#N)c(Nc3cccc(F)c3)nc2c1 | < 0.2 |
| CC(C)(C)c1ccc(CN2C(=O)c3ccccc3S2(=O)=O)cc1 | 1.2 (≈ 3.64 µM) |
| COc1cccc(NC(=O)Cc2ccc3ccccc3c2)c1 | 2.2 (≈ 7.55 µM) |
| CCOC(=O)c1ccc2c(c1)N(C)C(=O)c1ccccc1S2 | 7.7 (≈ 24.6 µM) |
| O=C(COC(=O)c1ccccc1O)NCCc1c[nH]c2ccccc12 | 7.8 (≈ 23.1 µM) |
| COc1ccc(Cl)cc1N1C(=O)CC(N2CCN(S(=O)(=O)c3ccccc3F)CC2)C1=O (stereo unspecified) | 38.3 (≈ 79.5 µM) |

| Structure (SMILES) | solubility kinetic [µg/mL] |
| --- | --- |
| CCCCNC(=O)c1ccccc1SCc1c(C)noc1C | > 47.8 |
| CC1CN(CC(=O)Nc2nc3ccccc3s2)CC(C)O1 (stereo unspecified) | 39 (≈ 128 µM) |
| Cc1cc(C(=O)COc2ccc([N+](=O)[O-])cc2)c(C)n1C1CC1 | 2.2 (≈ 7 µM) |
| O=S(=O)(Nc1ncccn1)c1ccccc1 | > 35.3 |
| Cn1c(C(=O)NCCc2ccccc2)cc(=O)n(C)c1=O | > 43.1 |
| CCN(CC(=O)NC(C)C)C(=O)c1cc(S(=O)(=O)N2CCCCC2)ccc1N1CCCCC1 | 10.7 (≈ 22.4 µM) |
| Cc1c(Cl)cccc1NC(=O)CC1Oc2ccccc2NC1=O (stereo unspecified) | 5.7 (≈ 17.2 µM) |
| Cn1c(=O)c(C(=O)NCC2CCCO2)c(O)c2ccccc21 (stereo unspecified) | 15.2 (≈ 50.3 µM) |
| CC(=O)c1c(C)[nH]c(C(=O)Nc2cccc3ccccc23)c1C | 5.9 (≈ 19.3 µM) |
| Cn1ccnc1COc1ccc(/C=N/O)cc1 | > 34.7 |
| O=C(COC(=O)/C=C/c1ccccc1)NC1CC1 | > 36.8 |
| Cc1ccc(C(=O)Nc2cc3[nH]c(=O)oc3cc2C)cc1 | 4.8 (≈ 17 µM) |
| Cc1cc(=O)oc2cc(OC(C)C(=O)NC3CCCC3)ccc12 (stereo unspecified) | 44.6 (≈ 141 µM) |
| CCOc1cccnc1Sc1ccccc1 | 27.7 (≈ 120 µM) |
| Cc1ccc(OCC(=O)N2CCc3ccccc32)c([N+](=O)[O-])n1 | 1 (≈ 3.19 µM) |
| S=c1nc(NCc2cccc(Cl)c2)c2ccccc2[nH]1 | 0.5 (≈ 1.66 µM) |
| O=C(COC(=O)c1ccccc1Br)Nc1cccnc1Cl | 18.2 (≈ 49.2 µM) |
| Nc1c(C(=O)O)sc2nc(-c3ccccc3)cc(-c3ccc(F)cc3)c12 | 51.3 (≈ 141 µM) |
| O=C(NCCCc1ccccc1)c1cccc(Br)c1 | 19 (≈ 59.7 µM) |
| CC(=O)Nc1ccc(NS(=O)(=O)c2ccc(C)cc2)cc1[N+](=O)[O-] | > 52.4 |
| Cc1cccc(NC(=O)C2CCCCN2S(=O)(=O)c2ccccc2)c1C (stereo unspecified) | 45.1 (≈ 121 µM) |
| O=C(Nc1ccc(N2CCOCC2)nc1)c1cccs1 | > 43.4 |
| COc1ccccc1CN(C)C(=O)c1cc2ccccc2o1 | 28.7 (≈ 97.2 µM) |
| OCCSc1nc(N2CCOCC2)nc(N2CCOCC2)n1 | > 49.1 |
| NC(=O)C(Cc1ccccc1)NC(=O)C12CC3CC(CC(C3)C1)C2 (stereo unspecified) | 48.1 (≈ 147 µM) |

| Structure (SMILES) | solubility kinetic [µg/mL] |
| --- | --- |
| CC1CCc2sc(C(=O)NC(C)C3CCCO3)cc2C1 (stereo unspecified) | > 44 |
| S=c1[nH]nc(C2(c3ccccc3)CCCC2)o1 | > 36.9 |
| Cc1ccc(NC(=O)CCc2c[nH]c3ccccc23)nc1 | > 41.9 |
| O=c1ccnc2n1COCS2 | > 25.5 |
| NC(=O)COc1ccc2oc(-c3ccccc3)cc(=O)c2c1 | 1.1 (≈ 3.73 µM) |
| COc1ccc(NS(=O)(=O)c2cn(C)cn2)c(OC)c1 | > 44.6 |
| O=C(CN1C(=O)COc2ccccc21)N1CCCC1 | > 39 |
| COc1cccc(CC(=O)OCC(=O)NCc2ccc3c(c2)OCO3)c1 | > 53.6 |
| CS(=O)(=O)N1CCN(c2ccc(NC(=O)c3ccccc3)cc2)CC1 | 1 (≈ 2.78 µM) |
| Cc1ccccc1-c1nc2cc(NC(=O)C3CC3)ccc2o1 | 0.8 (≈ 2.74 µM) |
| Cc1ccc(-n2ccnc(SCC(=O)NC3CCCC3)c2=O)cc1Cl | 3 (≈ 7.94 µM) |
| O=C(c1ccccc1)N1CCN(C(=O)C2CC2)CC1 | 38.2 (≈ 148 µM) |
| O=C(COc1ccccc1Cl)Nc1nc(-c2ccncc2)cs1 | 11.4 (≈ 33 µM) |
| COc1cc2ccccc2cc1C(=O)NC1CCCC1 | > 40.4 |
| COc1ccc(F)cc1S(=O)(=O)NCCN1CCOCC1 | > 47.8 |
| Cc1cc(C)c(C)c(S(=O)(=O)Nc2cccc(S(=O)(=O)Nc3ccccc3C(=O)O)c2)c1C | 72.1 (≈ 148 µM) |
| Cc1csc(NC(=O)c2cc[n+]([O-])cc2)n1 | > 35.3 |
| CC(OC(=O)c1cnc2ccccc2n1)c1ccccc1Cl (stereo unspecified) | 14.8 (≈ 47.3 µM) |
| COc1ccc(S(=O)(=O)N2CC(=O)Nc3ccccc32)cc1Cl | > 52.9 |
| CC(=O)Nc1ccc(NC(=O)c2cccc3ccccc23)cc1 | 1.7 (≈ 5.59 µM) |
| NC(=O)C1CCN(C(=S)NC2CC3C=CC2C3)CC1 (stereo unspecified) | > 41.9 |
